Measured values published in patent US20210403498A1, “PHYTOCHEMICAL-FRUCTOOLIGOSACCHARIDE CONJUGATE, METHOD FOR PRODUCING SAME, AND USE THEREOF” (EVERGREEN BIO CO., LTD., priority 2018, published 2021).
In brackets after ≈: the same amount, converted by molar mass. Where two headings read alike, the source gives them in different places.

Assays:
[1] = test system: CCD 18Co (Normal Human colon fibroblast primary cell line); experiment: CCK-8 cell proliferation, normal colon cells; assay type: cell-based; settings: 72 hr
Method: (§1) Specifically, the cell lines cultured in each well of a 96-well plate were dispensed at a density of 18,000 cells per well and cultured overnight, and then the cells were treated with drugs dissolved in various concentrations in the culture medium, and were incubated for 72 hr under a temperature of 37° C. and 5% CO2 condition in a humidified incubator. After completion of the culture, the medium was removed and replaced with 100 μl of PBS, and […] Cell Counting Kit-8 (CCK-8; Dojindo, Japan) solution was added thereto, and the cells were incubated for 3 hr for reaction. Thereafter, the degree of color development of the reaction solution was measured based on absorbance at 450 nm, and the number of cell proliferation was calculated according to the instructions of the producing company.
(§2) HT-29 cells were cultured in McCoy's 5A medium, LoVo cells were cultured in Ham's F-12K (Kaigh's) medium, CCD 18Co cells were cultured in DMEM. Before use, 10% Fetal bovine serum and 100 U/ml penicillin, streptomycin were added to all media.

[2] = test system: HT-29 (Colorectal adenocarcinoma); experiment: CCK-8 cell proliferation, colorectal cancer cells; assay type: cell-based, human; settings: for IC50: HT-29, 72 hr, CCK-8; for SI (Selectivity Index): IC50 for Normal cell (CCD 18Co)/IC50 for HT-29
Method: as §1, §2

[3] = test system: Lovo (Colorectal adenocarcinoma capable of metastasis); experiment: CCK-8 cell proliferation, metastasis colorectal cancer cells; assay type: cell-based, human; settings: for IC50: Lovo, 72 hr, CCK-8; for SI (Selectivity Index): IC50 for Normal cell (CCD 18Co)/IC50 for Lovo
Method: as §1, §2

[4] = In vivo pharmacokinetics in rats (FA in plasma, LC MS/MS); settings: male, Sprague Dawley; rat plasma, single oral dose 100 mg/kg FA
Method: In order to evaluate the in vivo pharmacokinetics of FA-FOS II, the release profile of ferulic acid (FA) released from FA-FOS II in the colon of rats was investigated. Specifically, male Sprague Dawley rats weighing 180 to 250 g were randomly assigned to three groups as follows.
(ii) Ferulic acid (FA) administered group: a drug is prepared by dissolving ferulic acid (FA) in water and is administered orally thereto at a predetermined dose
(iii) FA-FOS II administered group: a drug is prepared by dissolving FA-FOS II in water and is administered orally thereto at a predetermined dose
Ferulic acid (FA) was orally administered to the rats at a dose of 100 mg/kg body weight, based on the amount of ferulic acid (FA), in the state dissolved in sterile water. Further, FA-FOS II was orally administered thereto at a dose of 3.89 g/kg body weight (equivalent to 100 mg/kg body weight in terms of the amount of ferulic acid) based on the amount of FA-FOS II, in the state dissolved in sterile water. After single dose administration via oral intake, rat blood was continuously sampled over 0, 0.5, 1, 3, 6, 8, 12, 24 hr. The sampled samples were subjected to LC MS/MS analysis in a multiple reaction monitoring (MRM) manner of a molecular weight 193.0/133.9 Da (intact mass/fragment mass of FA) to quantify the FA released from plasma.

SMILES | IC50 ([1]; Homo sapiens, read-out: IC50) | IC50 ([2]; Homo sapiens, read-out: IC50) | SI (Selectivity Index) [2] | IC50 ([3]; Homo sapiens, read-out: IC50) | SI (Selectivity Index) [3] | Tmax [4] | half-life [4] | IC50 [1] | IC50 [2] | IC50 [3]
O=c1[nH]cc(F)c(=O)[nH]1 [5-Fluorouracil, 5-fluorouracil] | 0.014 mg/L (≈ 0.108 µM) | 0.008 mg/L (≈ 0.0615 µM) | (SI: 1.685) | 0.074 mg/L (≈ 0.569 µM) | (SI: 0.186) |  |  |  |  | 
COc1cc(/C=C/C(=O)O)ccc1O [FA, ferulic acid] | 0.583 mg/L (≈ 3 µM) | 0.2 mg/L (≈ 1.03 µM) | (SI: >2.918) | 0.244 mg/L (≈ 1.26 µM) | (SI: >2.389) | ~5 min | ~30 min |  |  | 
O=C1[O][Pt]2([NH][C@@H]3CCCC[C@H]3[NH]2)[O]C1=O [Oxaliplatin, oxaliplatin] |  |  | (SI: 6.631) |  | (SI: 1.473) |  |  | 0.100 mg/L | 0.015 mg/L | 0.068 mg/L
